Assay [1] concerns the target T1, N48K Clarin-1 (Homo sapiens, UniProt P58418, N48K).
T1 construct: expressed in transfected cells
T1 sequence (P58418 1-232 N48K): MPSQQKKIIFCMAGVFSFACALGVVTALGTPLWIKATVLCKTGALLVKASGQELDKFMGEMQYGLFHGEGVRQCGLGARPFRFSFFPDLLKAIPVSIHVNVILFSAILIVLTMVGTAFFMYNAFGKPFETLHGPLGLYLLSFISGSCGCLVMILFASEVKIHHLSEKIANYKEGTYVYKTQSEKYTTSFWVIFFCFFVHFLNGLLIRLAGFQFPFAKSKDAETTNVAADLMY
Put plainly: Restoration of expression of N48K Clarin-1, 24 hour incubation (high content imaging of HA-tagged N48K Clarin-1). In kind it is cell-based. As to conditions: HEK293-Clarin-1 N48K-HA D9 cell line, 24 hr incubation with compound; read-out: IC50 (the source's name). As for the experimental part: Assay Method Showing Activity of Compounds of the Invention that Restore Expression of N48K Clarin-1 (24 hour incubation)
(§1) Clarin-1 is the protein encoded by the gene mutated in Usher III Syndrome (Adato et al., 2002). The most prevalent mutation in Clarin-1 in North America is N48K, which is reported to cause loss of glycosylation and a trafficking defect (Tian et al., 2009). […] Thus it is believed that restoring the trafficking of N48K Clarin-1 to the cell surface provides an avenue of intervention for Usher III Sydrome.
(§2) In a typical experiment, these cells were seeded on collagen-coated 96-well plates at a cell density of 20,000 cells per well in Dulbecco's Modified Eagle Medium (DMEM) contain 10% fetal bovine serum in a humidified incubator at 37° C., 5% CO2. After an overnight incubation, compounds were added for a 24 hr incubation in DMEM medium contain 10% fetal bovine serum in a humidified incubator at 37° C., 5% CO2. As a negative control, DMSO was used at 0.25% final concentrations. Compounds were typically tested in triplicate fashion. After the 24 hr incubation with compounds, the cells were fixed by the addition of 10% buffered formalin to the wells to achieve a final concentration of 4% formalin. After a 20 min fixation at room temperature, wells were washed three times with phosphate-buffered saline (PBS) containing Triton X-100 (0.02 phosphate, 150 mM NaCl, 0.1% Triton X-100).
(§3) The HA-tagged N48K Clarin-1 was detected with an antibody against the HA tag (HA.11 Clone 16B12 Monoclonal antibody, Covance #MMS-101P) at a dilution of 1:1000 in PBS containing Triton X-100. After a 90 min incubation, wells were washed three times with PBS containing Triton X-100, and a secondary antibody (Goat anti-mouse IgG-Cy3 (1.5 mg/ml), Jackson IR Europe #115165003) was added to the wells at a dilution of 1:250 in PBS containing Triton X-100 for 45 min. Wells were subsequently washed three times with PBS containing Triton X-100, and a final staining for nuclei was performed by the addition of DAPI (4′,6-diamidino-2-phenylindole) at a dilution of 1:10,000. The imaging of the stained cells was performed on an InCell 1000 High Content Imager (GE Healthcare), reading out the Cy3 channel for N48K Clarin-1 and the DAPI channel for nuclei. The images were analyzed and quantitated using a specific algorithm. This algorithm measured the HA-Clarin-1 staining for each cell based on the additional nuclear segmentation of the DAPI signal (FIG. 1). This algorithm measured the intensity per cell, and thus it is less sensitive for variation in cell number. Per well, approximately 2,000 cells were measured to achieve an average density per cell measurement. FIG. 1 illustrates high content analysis. DAPI-stained nuclei are used to perform segmentation of the image into individual cells. The density observed in the N48K Clarin-1 channel (Cy3) is then calculated per cell averaged over a field.

The target in assay [2] is T1, N48K Clarin-1. As to the kind of experiment: Restoration of expression of N48K Clarin-1, 2 hour incubation then 22 hr fresh medium (high content imaging of HA-tagged N48K Clarin-1). In kind it is cell-based. The following applies: HEK293-Clarin-1 N48K-HA D9 cell line, 2 hr incubation with compound, then 22 hr in fresh medium. As for the experimental part:
An Assay Method Showing Activity of Compounds of the Invention that Restore Expression of N48K Clarin-1(2 hour incubation)
as §1
as §2, with “for a 2 hr incubation” for “for a 24 hr incubation”, “After the 2 hr incubation” for “After the 24 hr incubation”, “cells were incubated in fresh medium for 22 hr. The cells were then fixed by” for “cells were fixed by”
as §3, with “images are” for “images were”, “measurement.” for “measurement. FIG. 1 illustrates high content analysis. DAPI-stained nuclei are used to perform segmentation of the image into individual cells. The density observed in the N48K Clarin-1 channel (Cy3) is then calculated per cell averaged over a field.”

The text below walks through data of US9783545B2, “Pyrazolopyridazines and methods for treating retinal-degenerative diseases and hearing loss associated with usher syndrome” (Usher III Initiative, Inc., priority 2012, dated 2017).

Take `Cn1cncc1Cn1nc(-c2ccccc2)c2c(Cl)c(-c3ccccc3)nnc21` [IIa, 4-chloro-1-[(3-methylimidazol-4-yl)methyl]-3,5-diphenyl-pyrazolo[3,4-c]pyridazine]: on N48K Clarin-1 [1], the EC50 was no more than 2000 nM. Also, the 50% inhibitory concentration (IC50) at N48K Clarin-1 [2] lay in the range of 4 to 8 µM.

For the compound `O=C1CCCN1CCn1nc(-c2ccccc2)c2c(Cl)c(-c3ccccc3)nnc21` [IIb, 1-[2-(4-chloro-3,5-diphenyl-pyrazolo[3,4-c]pyridazin-1-yl)ethyl]pyrrolidin-2-one], the EC50 at N48K Clarin-1 [1] is no more than 2000 nM. Moreover, the IC50 on N48K Clarin-1 [2] was no more than 4 µM.

For the compound `Clc1c(-c2ccccc2)nnc2c1c(-c1ccccc1)nn2CCn1ccnc1` [IIc, 4-chloro-1-(2-imidazol-1-ylethyl)-3,5-diphenyl-pyrazolo[3,4-c]pyridazine], on N48K Clarin-1 [1], the EC50 is no more than 2000 nM. Also, on N48K Clarin-1 [2], the IC50 is no more than 4 µM.

Regarding `CC1(Cn2nc(-c3ccccc3)c3c(Cl)c(-c4ccccc4)nnc32)COC1` [IIf, 4-chloro-1-[(3-methyloxetan-3-yl)methyl]-3,5-diphenyl-pyrazolo[3,4-c]pyridazine], the EC50 on N48K Clarin-1 [1] was no more than 2000 nM. For the same compound, the concentration for half-maximal inhibition (IC50) on N48K Clarin-1 [2] is no more than 4 µM.

Turning to `Cn1cc(Cn2nc(-c3ccccc3)c3c(Cl)c(-c4ccccc4)nnc32)cn1` [IIg, 4-chloro-1-[(1-methylpyrazol-4-yl)methyl]-3,5-diphenyl-pyrazolo[3,4-c]pyridazine], the EC50 at N48K Clarin-1 [1] is no more than 2000 nM. For the same compound, the IC50 on N48K Clarin-1 [2] is no more than 4 µM.

With `Clc1c(-c2ccccc2)nnc2c1c(-c1ccccc1)nn2Cc1cocn1` [IIh, 4-[(4-chloro-3,5-diphenyl-pyrazolo[3,4-c]pyridazin-1-yl)methyl]oxazole], the EC50 at N48K Clarin-1 [1] is no more than 2000 nM. Moreover, the 50% inhibitory concentration (IC50) at N48K Clarin-1 [2] is no more than 4 µM.

For the compound `Clc1c(-c2ccccc2)nnc2c1c(-c1ccccc1)nn2C[C@H]1CCCO1` [IIj, 4-chloro-3,5-diphenyl-1-[[(2R)-tetrahydrofuran-2-yl]methyl]pyrazolo[3,4-c]pyridazine], the EC50 on N48K Clarin-1 [1] is no more than 2000 nM. In addition, the 50% inhibitory concentration (IC50) at N48K Clarin-1 [2] is no more than 4 µM.

Take `FCCn1nc(-c2ccccc2)c2c(Cl)c(-c3ccccc3)nnc21` [IIl, 4-chloro-1-(2-fluoroethyl)-3,5-diphenyl-pyrazolo[3,4-c]pyridazine]: the EC50 on N48K Clarin-1 [1] is no more than 2000 nM. Further, on N48K Clarin-1 [2], the IC50 was no more than 4 µM.

As to `Clc1c(-c2ccccc2)nnc2c1c(-c1ccccc1)nn2Cc1cccnc1` [IIn, 4-chloro-3,5-diphenyl-1-(3-pyridylmethyl)pyrazolo[3,4-c]pyridazine], on N48K Clarin-1 [1], the EC50 is no more than 2000 nM. Moreover, the IC50 at N48K Clarin-1 [2] is no more than 4 µM.

With `CS(=O)(=O)CCn1nc(-c2ccccc2)c2c(Cl)c(-c3ccccc3)nnc21` [IIq, 4-chloro-1-(2-methylsulfonylethyl)-3,5-diphenyl-pyrazolo[3,4-c]pyridazine], the EC50 on N48K Clarin-1 [1] is no more than 2000 nM. For the same compound, the IC50 at N48K Clarin-1 [2] was no more than 4 µM.

In the case of `Fc1cccc(-c2nn(CCn3ccnc3)c3nnc(-c4ccccc4)c(Cl)c23)c1` [IIs, 4-chloro-3-(3-fluorophenyl)-1-(2-imidazol-1-ylethyl)-5-phenyl-pyrazolo[3,4-c]pyridazine], the EC50 on N48K Clarin-1 [1] was no more than 2000 nM. Besides, the IC50 at N48K Clarin-1 [2] was no more than 4 µM.

Turning to `CN1CCN(CCn2nc(-c3cnn(C)c3)c3c(Cl)c(-c4ccccc4)nnc32)CC1` [Ic, 4-chloro-3-(1-methyl-1H-pyrazol-4-yl)-1-(2-(4-methylpiperazin-1-yl)ethyl)-5-phenyl-1H-pyrazolo[3,4-c]pyridazine], on N48K Clarin-1 [1], the EC50 is no more than 2000 nM. For the same compound, the half-inhibitory concentration (IC50) at N48K Clarin-1 [2] was in the range of 4 to 8 µM.

Take `COC/C=C/c1nn(CCN2CCN(C)CC2)c2nnc(-c3ccccc3)c(Cl)c12` [Ii, (E)-4-chloro-3-(3-methoxyprop-1-en-1-yl)-1-(2-(4-methylpiperazin-1-yl)ethyl)-5-phenyl-1H-pyrazolo[3,4-c]pyridazine]: the EC50 at N48K Clarin-1 [1] was no more than 2000 nM. Moreover, on N48K Clarin-1 [2], the half-maximal inhibitory concentration (IC50) is no more than 4 µM.

Regarding `CN1CCN(CCn2nc(-c3cccn3C)c3c(Cl)c(-c4ccccc4)nnc32)CC1` [Ik, 4-chloro-3-(1-methyl-1H-pyrrol-2-yl)-1-(2-(4-methylpiperazin-1-yl)ethyl)-5-phenyl-1H-pyrazolo[3,4-c]pyridazine], the EC50 on N48K Clarin-1 [1] was no more than 2000 nM. Also, the IC50 at N48K Clarin-1 [2] is no more than 4 µM.

For the compound `CN1CCN(CCn2nc(-c3ccc4c(c3)CCO4)c3c(Cl)c(-c4ccccc4)nnc32)CC1` [Il, 4-chloro-3-(2,3-dihydrobenzofuran-5-yl)-1-(2-(4-methylpiperazin-1-yl)ethyl)-5-phenyl-1H-pyrazolo[3,4-c]pyridazine], on N48K Clarin-1 [1], the EC50 was no more than 2000 nM. For the same compound, the IC50 on N48K Clarin-1 [2] was no more than 4 µM.

In the case of `Cc1nn([C@@H]2C[C@H]3CC[C@@H](C2)N3)c2nnc(-c3ccccc3)c(Cl)c12` [XIIIa], the half-maximal inhibitory concentration (IC50) on N48K Clarin-1 [2] was 4 to 8 µM.

Regarding `Cn1cncc1Cn1nc(-c2cccn2C)c2c(Cl)c(-c3ccccc3)nnc21` [XIIIb, 4-chloro-1-[(3-methylimidazol-4-yl)methyl]-3-(1-methylpyrrol-2-yl)-5-phenyl-pyrazolo[3,4-c]pyridazine], on N48K Clarin-1 [2], the IC50 was in the range of 4 to 8 µM.

As to `Cn1nc(N2CCCC2)c2c(Cl)c(-c3ccccc3)nnc21` [XIIIc, 4-chloro-1-methyl-5-phenyl-3-pyrrolidin-1-yl-pyrazolo[3,4-c]pyridazine], at N48K Clarin-1 [2], the IC50 lay in the range of 8 to 12 µM.

As for `Cc1nn(CCN2CCCC2)c2nnc(-c3ccccc3)c(Cl)c12` [XIIId, 4-chloro-3-methyl-5-phenyl-1-(2-pyrrolidin-1-ylethyl)pyrazolo[3,4-c]pyridazine], at N48K Clarin-1 [2], the half-inhibitory concentration (IC50) fell in the range of 4 to 8 µM.

Consider `Clc1c(-c2ccccc2)nnc2c1c(-c1ccccc1)nn2CCn1cccn1` [XIVa, 4-chloro-3,5-diphenyl-1-(2-pyrazol-1-ylethyl)pyrazolo[3,4-c]pyridazine], for which, on N48K Clarin-1 [2], the IC50 is no more than 4 µM.

Broadly, the IC50 is the concentration needed to halve the response being measured.
